The subject of one data set is CCRF-CEM. Put plainly: NCI sulforhodamine B assay. Type of data set: cell-based. The following applies: Homo sapiens, 48 h, read-out: Log10 LC50 (converted). A general note: In SRB staining, fixed cells bind dye roughly in proportion to their protein.
The subject of a further data set is Leukemia. Put plainly: NCI assay, average per cancer type.
Another data set relates to CNS. Put plainly: NCI assay, average per cancer type.
Data set [1] relates to Melanoma. Put plainly: NCI assay, average per cancer type.
Data set [2] has as its system Ovarian. Put plainly: NCI assay, average per cancer type.
A further data set deals with BE-1. Put plainly: Soft agar colony formation disk diffusion assay. It counts as cell-based, human. A digest of the protocol: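 Cells were suspended at 10^4 to 2×10^5 per dish in 0.4% Noble agar in RPMI-1066 over a 0.8% agar/Tryptic Soy Broth bottom layer. Compound in DMSO/water was dried onto a 6.5 mm paper disk placed on the upper layer. Read-out was the zone of inhibition from disk edge to nearest colonies (>50 cells), measured by ocular micrometer.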
On the technique in general: In agar diffusion tests the substance spreads into inoculated agar from a disc or well.

The subject of data set [3] is tumor cell lines. Put plainly: Tumor clonogenic assay, overall. It counts as cell-based. The source says:
For the IN VITRO test, we chose a tumor clonogenic assay which measures the ability of tumoral cells to form colonies (multicellular growth units) as a result of cell division in semisolid agar support (2,3). A more elaborate version of this fundamental assay, the soft agar colony formation disk diffusion assay was used. This assay defines the relative activity of one particular drug versus a tumoral cell line type. The effect of the test drug against tumoral cells could be measured by its inhibitory capacity against colony formation after the delivery of the compound, in different concentrations on an filter disk(4).
A modified technique of this assay was used in order to investigate the antiproliferative activity of candidate compounds. Tumoral cells from solid tumors and ascitic lines were plated separately in a two layer agar matrix. Cell lines to be tested were suspended in an upper layer of 0.4% Noble agar (Difco#00142-01) in RPMI-1066 (Gibco#3201875) at a yield varying between 10^4 to 2×10^5 cells per 60 mm Petri dish. Plating efficiency was determined for each line in order to achieve an optimal number of colonies per dish. Plates were examined before drug administration to confirm a uniform dispersion of single cells. The bottom layer consisted of 0.8% Noble agar, 0.8% Tryptic Soy Broth (difco#0037001)in CMRL-1066/Fischer's. The bottom layers were used within 2 and 9 days of preparation. Plated dishes (bottom layer of agar, upper layer of cells and administered drug were incubated in humidified atmosphere at 37° C., 5% CO2 for 10-20 days depending upon the time necessary to observe adequate colonies (defined as a cell aggregate of more than 50 cells) both control and drug inhibited. Drugs were administered on a paper filter disk (Whatman No. 1) of 6.5 mm diameter placed on the upper layer at 1/3 distance from the edge of the dish. The anti-clonogenic activity of the compounds was measured as the zone of inhibition from the disk edge to the most proximal colonies. This zone of inhibition was checked on an inverted microscope (40×) and was measured with a micrometer mounted in the eyepiece. The ocular micrometer was calibrated with a stage micrometer set for a particular combination of ocular and objective lenses.
200 units of activity are equivalent to 6.5 mm distance from the disk edge to the first colonies (5). […] We made a modification of the initial technique by not plating a solid tumor and a leukemia simultaneously in the same Petri dish. Anti-clonogenic tests performed on leukemia cell line have helped in the discovery of the majority of current clinically used cytostatic drugs. Our tests on solid tumor lines (animal or human) may help define active compounds with solid tumor specificity. This specific activity would be indicated by a higher level of cloning inhibition in solid tumors versus leukemias (6).

Data set [4] has as its system tumor cell lines. The following applies: tumor cell line panel, 48 h.
Another data set has as its system NSC Lung. The following applies: nsc lung cancer cell lines, 48 h.
A further data set relates to Colon. The following applies: colon cancer cell lines, 48 h.
The subject of data set [5] is Melanoma. The following applies: melanoma cell lines, 48 h.
The test system of data set [6] is Ovarian. The following applies: ovarian cancer cell lines, 48 h.
Where [7] appears, read: Homo sapiens, read-out: Average LOG10 GI50.

Entries after “also recorded” stand apart in the source; their conditions may differ. Bounds are passed on as bounds.

A word on the GI50: it is the concentration at which growth is held to half of that of the control.

Method for CCRF-CEM: The method consists of incubating varying concentrations of the drug with an inoculum of cells for two days. […] The 57 cell lines included two mouse leukemia lines (P388 parental and adriamycin resistant) and 56 human cell lines.
It should be noted that the first two parameters (GI50 and TGI) relate to antiproliferation effects while the third one (LC50) indicates true cytotoxicity. A value of -4 or greater is considered to denote resistance (inactivity).

`COC(=O)C1CC2=C(C(=O)c3c(cc4ccccc4c3O)C2=O)C(O[C@H]2C[C@H](NC(=O)C(F)(F)F)[C@H](O)[C@H](C)O2)O1` (mixture of isomers) [BCH-242, (1'S,1R,3S) and (1'S, 1S,3R)-Methyl[11-hydroxy-1-2',3',6'-trideoxy-3-trifluroacetamido-L-lyxohexopyranose)-5,12-dioxo-3,4,5,12-tetrahydroanthraceno[2,3-c]pyran-3-yl]formate]: the CC50 was over 100000 nM with CCRF-CEM; over 100000 nM with Leukemia (48 h, read-out: Average LOG10 LC50); 3890 nM with Melanoma [1] (Homo sapiens, 48 h, read-out: Average LOG10 LC50). In addition, the GI50 is 316 nM with Leukemia (read-out: Average LOG10 GI50), 1550 nM in the data set on CNS (setting [7]), 437 nM in the data set on Melanoma [1] (setting [7]) and 741 nM with Ovarian [2] (setting [7]).

In the case of `COC(=O)[C@H]1CC2=C(C(=O)c3c(cc4ccccc4c3O)C2=O)[C@H](O[C@H]2C[C@H](NC(=O)C(F)(F)F)[C@H](O)[C@H](C)O2)O1` (mixture of isomers) [BCH-692, (1'S,1S,3R) and (1'S,1R,3S) Methyl[11-hydroxy-1-(2',3',6'-trideoxy-3'-trifluoroacetamido-4'-hydroxy-L-lyxohexopyranose)-5,12-dioxo-3,4,5,12-tetrahydro-anthraceno[2,3-c]pyran-3-yl]formate], the zone of inhibition in the data set on BE-1 (10 μg/DISK) was found to be 0 Zone Units; with BE-1 (100 μg/DISK) it was 100.0 ± 50.0 Zone Units. Also, the “activity and specificity in words” value in the data set with tumor cell lines [3] was “most active; also recorded: Good broad spectrum activity”.

Take `COC(=O)[C@@H]1CC2=C(C(=O)c3c(cc4ccccc4c3O)C2=O)[C@@H](O[C@H]2C[C@H](NC(=O)C(F)(F)F)[C@H](O)[C@H](C)O2)O1` [BCH-691, (1'S,1R,3S)-Methyl-{11-hydroxy-1-(2',3',6'-trideoxy-3'-trifluoroacetamido-4'-hydroxy-L-lyxoheoxpyranose)-5,12-dioxo-3,4,5,12-tetrahydroanthraceno[2,3-c]pyran-3-yl}formate]: the results for the zone of inhibition in the data set on BE-1 (10 μg/DISK) and in the data set on BE-1 (100 μg/DISK) were 55.0 ± 10.0 Zone Units and 155.5 ± 50.3 Zone Units, respectively. The “activity and specificity in words” value in the data set on tumor cell lines [3] is on record as “most active; also recorded: Good broad spectrum activity”.

In the case of “Methyl(11-hydroxy-5,12-dioxo-3,4,5,12-tetrahydroanthraceno[2,3-c]pyran-3-yl)ketone and Methyl(5-hydroxy-5,12-dioxo-3,4,5,12-tetrahydroanthraceno[2,3-c]pyran-3-yl)ketone [BCH-687]”, the zone of inhibition in the data set on BE-1 (10 μg/DISK) is 85.0 ± 44.2 Zone Units; in the data set on BE-1 (100 μg/DISK), 162.6 ± 70.4 Zone Units. Besides, the “activity and specificity in words” value in the data set on tumor cell lines [3] is “most active; also recorded: responded well”. In the data set on tumor cell lines [4], the “Log10 LC50, Mean / MG-MID” value is recorded as -4.10 log molar. Also, the “Average LOG10 LC50” value with NSC Lung is > -4.23(± 0.07) log molar; in the data set on Colon, -4.25(± 0.09) log molar; in the data set on Melanoma [5], -4.28(± 0.09) log molar; in the data set with Ovarian [6] it was -4.15(± 0.11) log molar. Also, the “Average LOG10 GI50” value is given as -4.91 ± 0.12 log molar in the data set with Leukemia (Leukemia), -4.59 ± 0.16 log molar with CNS (CNS), -5.05 ± 0.27 log molar with Melanoma [1] (Melanoma) and -4.94 ± 0.37 log molar in the data set on Ovarian [2] (Ovarian).
